“And” between values parts separate entries of the source, which are not always exact repeats. Equal values may be shown once.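 Results reflect a 48-hour exposure of cells in 96-well plates to compound at five concentrations. TGI is the concentration that stops growth completely.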
Experiments:
Experiment in all cases: NCI tumour cell line growth inhibition, 48 h
[1] = test system: LXFL 529 NSCLC
[2] = test system: M19-MEL melanoma
[3] = test system: HOP-18 NSCLC
[4] = test system: RXF-631 renal
[5] = test system: DMS 114 small cell lung
[6] = test system: P388 leukemia
[7] = test system: XF 498 CNS
[8] = test system: SN12K1 renal
[9] = test system: P388/ADR leukemia

SMILES	TGI [1]	TGI [2]	TGI [3]	TGI [4]	TGI [5]	TGI [6]	TGI [7]	TGI [8]	TGI [9]
C/C=C(/CCC1NCCc2c1[nH]c1ccccc21)[Si](C)(C)C (centres undefined)	3.25 µM	> 100 µM and 10.1 µM	24.2 µM	> 100 µM and 22.9 µM					
CC(=O)Nc1ccc2c(c1)C(=O)c1ccccc1-2	> 100 µM	> 100 µM			> 100 µM				
O=S1(=O)C(=C(c2ccccc2)c2ccccc2)S(=O)(=O)c2ccccc21		> 100 µM	> 100 µM		> 100 µM	> 31.6 µM	62.4 µM	65.1 µM	> 100 µM

Reference: PubChem BioAssay (NCI)
